Each structure is given as a SMILES string. pIC50: −log10 of the molar value. Read-outs that look alike come from different tables or passages of the source.

For the test, the target named is T1, dopamine D1 receptor (Rattus norvegicus, UniProt P18901).
T1 construct: homogenates from rat striatum; from tissue; host or cells: rat striatum homogenate
Description: Binding to dopamine D1 receptor in homogenates from rat striatum.

T1 sequence (P18901 whole entry): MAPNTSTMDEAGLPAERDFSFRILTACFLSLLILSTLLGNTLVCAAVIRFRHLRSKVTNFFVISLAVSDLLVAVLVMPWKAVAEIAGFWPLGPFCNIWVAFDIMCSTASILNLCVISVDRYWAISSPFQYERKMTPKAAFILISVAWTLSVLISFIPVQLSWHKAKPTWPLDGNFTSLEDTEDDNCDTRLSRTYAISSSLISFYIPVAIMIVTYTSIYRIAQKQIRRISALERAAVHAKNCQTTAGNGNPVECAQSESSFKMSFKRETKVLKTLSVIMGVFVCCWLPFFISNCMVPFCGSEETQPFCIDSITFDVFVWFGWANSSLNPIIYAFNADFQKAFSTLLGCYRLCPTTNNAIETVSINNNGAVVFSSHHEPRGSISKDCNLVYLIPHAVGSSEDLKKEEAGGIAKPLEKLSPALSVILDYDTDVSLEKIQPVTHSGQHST

As for `CN1CCc2cc(Cl)c(O)cc2C(c2cc(Br)cc3c2OCC3)C1` (single isomer, unassigned; (+)) [Example 1, (+) 8-Chloro-5-(5-bromo-2,3-dihydrobenzofuran-7-yl)-7-hydroxy-3-methyl-2,3,4,5-tetrahydro-1H-3-benzazepine], the pIC50 was 9.15. Turning to `CN1CCc2cc(Cl)c(O)cc2C(c2c(Cl)c(Cl)cc3c2OCC3)C1` (single isomer, unassigned; (+)) [Example 3, (+)8-Chloro-5-(5,6-dichloro-2,3-dihydrobenzofuran-7-yl)-7-hydroxy-3-methyl-2,3,4,5-tetrahydro-1H-3-benzazepine], the IC50 (homogenates from rat striatum, read-out: IC50 (nM) Dopamine D1 receptor) was determined as 0.9 nM.

These data come from patent publication EP0628039B1, “2,3,4,5-TETRAHYDRO-1H-3-BENZAZEPINES AND PHARMACEUTICALLY ACCEPTABLE ACID ADDITION SALTS THEREOF” (NOVO NORDISK A/S, priority 1992, dated 1993).
